Reference: the supplement of paper PMC10307832

Experiments:
Assay in all cases: relative viability (nuclei count vs DMSO), 5 days (fraction); higher = more cells survive
[1] = compound: O[C@@H](COc1cccc2ncccc12)CN1CCN([C@@H]2c3ccccc3[C@@H]3[C@H](c4ccccc42)C3(F)F)CC1 [Zosuquidar] + O=C(c1cc(Cc2n[nH]c(=O)c3ccccc23)ccc1F)N1CCN(C(=O)C2CC2)CC1 [Olaparib] (partner 8 µM)
Procedure, shortened: (§1)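 Lung cancer cell lines in 1536-well plates got either a single drug or a fixed anchor-drug dose together with five library-drug doses (not always all listed) in √10 steps, by pin tool, on the day after seeding. Nuclei were counted after 5 days, and relative viability is the treated-to-vehicle ratio of nuclei counts. Values are medians of duplicate plates.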

[2] = compound: O[C@@H](COc1cccc2ncccc12)CN1CCN([C@@H]2c3ccccc3[C@@H]3[C@H](c4ccccc42)C3(F)F)CC1 [Zosuquidar] + CC(=O)Nc1cccc(-n2c(=O)n(C3CC3)c(=O)c3c(Nc4ccc(I)cc4F)n(C)c(=O)c(C)c32)c1 [Trametinib] (partner 0.02 µM)
Procedure, shortened: as §1

[3] = compound: C1=CC(=CC=C1NC(=S)NNC2=C(C=C(C=C2[N+](=O)[O-])C(F)(F)F)[N+](=O)[O-])F [Kobe2602] + CS(=O)(=O)CCNCc1ccc(-c2ccc3ncnc(Nc4ccc(OCc5cccc(F)c5)c(Cl)c4)c3c2)o1 [Lapatinib] (partner 2 µM)
Procedure, shortened: as §1

[4] = compound: C1=CC(=CC=C1NC(=S)NNC2=C(C=C(C=C2[N+](=O)[O-])C(F)(F)F)[N+](=O)[O-])F [Kobe2602] + NC(=O)Nc1cc(-c2cccc(F)c2)sc1C(=O)N[C@H]1CCCNC1 [AZD7762] (partner 0.2 µM)
Procedure, shortened: as §1

Cell Line	relative viability ([1]; first compound 0.01 µM)	relative viability ([1]; first compound 0.03162 µM)	relative viability ([1]; first compound 0.1 µM)	relative viability ([1]; first compound 0.3162 µM)	relative viability ([1]; first compound 1 µM)	relative viability ([2]; first compound 0.01 µM)	relative viability ([2]; first compound 0.03162 µM)	relative viability ([2]; first compound 0.1 µM)	relative viability ([2]; first compound 0.3162 µM)	relative viability ([2]; first compound 1 µM)	relative viability ([3]; first compound 0.2 µM)	relative viability ([3]; first compound 0.6325 µM)	relative viability ([3]; first compound 2 µM)	relative viability ([3]; first compound 6.325 µM)	relative viability ([3]; first compound 20 µM)	relative viability ([4]; first compound 0.2 µM)	relative viability ([4]; first compound 0.6325 µM)	relative viability ([4]; first compound 2 µM)	relative viability ([4]; first compound 6.325 µM)	relative viability ([4]; first compound 20 µM)
NCI-H1355	0.677	0.709	0.791	0.826	0.809	0.461	0.416	0.435	0.557	0.401	0.942	1.01	0.992	0.876	0.929	0.744	0.7	0.744	0.676	0.815
NCI-H1395	0.469	0.441	–	0.501	0.443	1.05	1.01	–	1.05	1.07	0.925	1.04	1.01	1.18	1.12	0.35	0.428	0.406	0.422	0.406
NCI-H1437	0.591	0.646	0.669	0.604	0.662	0.508	0.587	0.507	0.762	0.533	0.815	0.847	0.723	0.79	0.673	1.17	1.14	1.11	1.05	1.02
NCI-H1651	0.181	0.194	0.169	0.2	0.179	0.773	0.803	0.772	0.864	0.789	0.871	0.981	0.836	0.775	0.764	0.442	0.447	0.462	0.41	0.429
NCI-H1666	0.75	0.795	0.73	0.815	0.787	0.833	1.03	0.859	0.954	0.811	0.639	0.659	–	0.468	0.592	0.804	0.804	0.903	0.812	0.891
NCI-H1734	0.614	0.674	0.613	0.655	0.646	0.591	0.773	0.658	0.734	0.623	1.06	1.11	1.14	1.26	1.03	0.554	0.656	0.586	0.549	0.503
NCI-H1755	0.873	0.88	0.778	0.92	0.867	0.762	0.75	0.755	0.819	0.75	1.01	1.03	0.951	1.02	1.09	0.416	0.446	0.642	0.407	0.544
NCI-H1792	0.334	0.424	0.339	0.422	0.396	0.522	0.427	0.41	0.535	0.421	0.963	0.878	0.992	0.928	0.978	0.553	0.792	0.593	0.578	0.769
NCI-H1793	0.971	–	–	1.01	0.758	0.423	–	–	0.445	0.434	1.03	0.663	0.621	0.623	0.78	0.654	0.352	0.641	0.287	0.539
NCI-H1915	0.267	0.261	0.268	0.265	0.291	0.296	0.284	0.297	0.321	0.301	0.998	1.04	0.969	1.02	1.03	0.711	0.729	0.7	0.71	0.682
NCI-H1944	0.404	0.407	0.384	0.516	0.385	0.418	0.393	0.389	0.429	0.388	0.878	0.944	0.837	0.857	0.787	0.561	0.553	0.704	0.496	0.585
NCI-H1975	0.722	0.753	0.784	0.734	0.866	0.431	0.351	0.299	0.528	0.337	0.886	0.956	0.767	0.756	0.852	0.724	0.791	0.658	0.645	0.662
NCI-H1993	0.949	1.01	–	1.19	1.05	0.483	0.5	–	0.591	0.508	0.718	0.727	0.783	0.814	0.875	0.812	0.847	0.611	0.698	0.688
NCI-H2085	0.706	0.809	–	0.736	0.751	0.513	0.481	–	0.617	0.548	0.749	0.751	0.779	0.776	0.879	0.931	1.01	0.986	0.87	0.943
NCI-H2087	0.586	0.557	0.603	0.578	0.539	0.188	0.192	0.167	0.224	0.196	0.879	1.01	1.26	0.957	1.04	1.24	1.22	1.22	1.32	1.13
NCI-H2126	0.909	0.868	0.849	0.922	0.917	0.505	0.577	0.536	0.573	0.599	0.751	0.775	0.778	0.725	0.759	1.07	1.01	1.09	1.08	0.988
